Values after ≈ are worked out from the molar mass of the structure shown.
Assays:
Assay type in all cases: physicochemical
[1] = Solubility in different buffered solutions at 25° C.
Experimental: Solubilities of 1-(6-amino-3,5-difluoropyridin-2-yl)-8-chloro-6-fluoro-1,4-dihydro-7-(3-hydroxyazetidin-1-yl)-4-oxo-3-quinolinecarboxylic acid in different buffered solutions at 25° C. are shown in TABLE 1.

[2] = Solubility in different base solutions at 25° C. (free acid); settings: for solubility: aqueous buffer
Experimental: Solubilities of 1-(6-amino-3,5-difluoropyridin-2-yl)-8-chloro-6-fluoro-1,4-dihydro-7-(3-hydroxyazetidin-1-yl)-4-oxo-3-quinolinecarboxylic acid in different base solutions at 25° C. are shown in TABLE 2.

[3] = Solubility of the trihydrate salt in different base solutions at 25° C.
Experimental: The solubility of D-glucitol, 1-deoxy-1-(methylamino)-, 1-(6-amino-3,5-difluoropyridin-2-yl)-8-chloro-6-fluoro-1,4-dihydro-7-(3-hydroxyazetidin-1-yl)-4-oxo-3-quinolinecarboxylate trihydrate (salt) in different base solutions at 25° C. is shown in TABLE 3.

[4] = 0.01M meglumine, final pH 9.00, 25° C.
[5] = 0.1M meglumine, final pH 9.83, 25° C.
[6] = 1M meglumine, final pH 10.85, 25° C.

## Nc1nc(-n2cc(C(=O)O)c(=O)c3cc(F)c(N4CC(O)C4)c(Cl)c32)c(F)cc1F [1-(6-amino-3,5-difluoropyridin-2-yl)-8-chloro-6-fluoro-1,4-dihydro-7-(3-hydroxyazetidin-1-yl)-4-oxo-3-quinolinecarboxylic acid]
[1]; 0.1 HCl (printed 0.1 HC1), simulated gastric fluid, 0.1 HC1, final pH 0.8, 25° C.
  solubility: 3.26 µg/mL (≈ 0.0074 mM)
[1]; aqueous buffer, 0.1M NaOH, final pH 8.4, 25° C.
  solubility: 3400 µg/mL (≈ 7.71 mM)
[1]; aqueous buffer, Phosphate Buffer 8.0, final pH 7.8, 25° C.
  solubility: 651 µg/mL (≈ 1.48 mM)
[1]; aqueous buffer, citrate buffer 4.0, final pH 4.2, 25° C.
  solubility: 3.44 µg/mL (≈ 0.0078 mM)
[1]; aqueous buffer, citrate buffer 5.0, final pH 5.1, 25° C.
  solubility: 3.33 µg/mL (≈ 0.00756 mM)
[1]; aqueous buffer, glycine buffer 9.0, final pH 8.2, 25° C.
  solubility: 2490 µg/mL (≈ 5.65 mM)
[1]; aqueous buffer, phosphate buffer 6.8, final pH 6.8, 25° C.
  solubility: 66.8 µg/mL (≈ 0.152 mM)
[1]; aqueous buffer, phosphate buffer 7.4, final pH 7.4, 25° C.
  solubility: 283 µg/mL (≈ 0.642 mM)
[1]; organic solvent or mixture, ethanol, 25° C.
  solubility: 867 µg/mL (≈ 1.97 mM)
[1]; saline or isotonic, saline, final pH 5.8-5.9, 25° C.
  solubility: 13 µg/mL (≈ 0.0295 mM)
[2]; 0.5M KOH
  Ksp (M^2): 1.69 × 10^−2 M^2
  Swater: 57.4 mg/mL
  solubility: 24400 µg/mL (≈ 55.4 mM)
[2]; 1M L-arginine
  Ksp (M^2): 4.81 × 10^−4 M^2
  Swater: 9.67 mg/mL
  solubility: 11200 µg/mL (≈ 25.4 mM)
[2]; 1M NaOH
  Ksp (M^2): 1.66 × 10^−2 M^2
  Swater: 56.8 mg/mL
  solubility: 8330 µg/mL (≈ 18.9 mM)
[2]; 1.0M TRIS
  Ksp (M^2): 1.619 × 10^−4 M^2
  Swater: 4.8 mg/mL
  solubility: 5760 µg/mL (≈ 13.1 mM)
[2]; 1M ethanolamine
  Ksp (M^2): 2.04 × 10^−3 M^2
  Swater: 19.9 mg/mL
  solubility: 24900 µg/mL (≈ 56.5 mM)
[2]; 1M meglumin
  Ksp (M^2): 2.81 × 10^−3 M^2
  Swater: 23.6 mg/mL
  solubility: 32100 µg/mL (≈ 72.8 mM)

## CNC[C@H](O)[C@@H](O)[C@H](O)[C@H](O)CO.Nc1nc(-n2cc(C(=O)O)c(=O)c3cc(F)c(N4CC(O)C4)c(Cl)c32)c(F)cc1F.O.O.O [D-glucitol, 1-deoxy-1-(methylamino)-, 1-(6-amino-3,5-difluoropyridin-2-yl)-8-chloro-6-fluoro-1,4-dihydro-7-(3-hydroxyazetidin-1-yl)-4-oxo-3-quinolinecarboxylate trihydrate (salt)]
[3]; [4]
  Ksp (M^2): 4.71 × 10^−3 M^2
  solubility: 32400 µg/mL
[3]; [5]
  Ksp (M^2): 4.16 × 10^−3 M^2
  solubility: 32200 µg/mL
[3]; [6]
  Ksp (M^2): 3.34 × 10^−3 M^2
  solubility: 30800 µg/mL
[3]; water, final pH 8.78, 25° C.
  Ksp (M^2): 5.00 × 10^−3 M^2
  solubility: 33900 µg/mL
